MIC data for 17 molecules are collected here from patent US4016159A, “Acylamino-cephem-carboxylic acids containing an amidino or guanidino group in the molecule” (Hoechst Aktiengesellschaft, priority 1973, dated 1977).

Converted amounts (≈) assume the structure as drawn. Where two headings read alike, the source gives them in different places.

Holding throughout (type): cell-based
The subject of one assay is Proteus mirabilis. As to the kind of experiment: Minimum inhibition concentration (MIC), Table 2. The settings on record: read-out: Minimum inhibition concentration (MIC). The text has this:
Minimum inhibition concentration (MIC) in /ml

Assay [1] has as its system Staphylococcus aureus SG 511. As to the kind of experiment: Minimum inhibition concentration (MIC), Table 5. To be noted: Staphylococcus aureus. The text has this: (§1) Minimum inhibition concentration (MIC) in γ/ml
Germ: Staphylococcus aureus SG 511

The subject of another assay is Streptococcus D. Put plainly: Minimum inhibition concentration (MIC), Table 4. The settings on record: Streptococcus, read-out: Minimum inhibition concentration (MIC).
From the text: as §1

For another assay, the system named is Streptococcus pyogenes A. As to the kind of experiment: Minimum inhibition concentration (MIC), Table 3. To be noted: read-out: Minimum inhibition concentration MIC. The text has this: Minimum inhibition concentration MIC in γ/ml
Germ: Streptococcus pyogenes A

The test system of assay [2] is Staphylococcus aureus 285. As to the kind of experiment: Minimum inhibition concentration (MIC), Table 1. To be noted: Staphylococcus aureus, 285, Germ: Staphylococcus aureus 285; read-out: Minimum inhibition concentration (MIC).
From the text: as §1
Germ: Staphylococcus aureus 285

Where [3] appears, read: SG511, read-out: Minimum inhibition concentration (MIC).
Setting [4] is: SG511, Germ: Staphylococcus aureus SG 511, read-out: Minimum inhibition concentration (MIC).

Turning to `CC1=C(C(=O)O)N2C(=O)[C@@H](NC(=O)[C@H](N)c3ccccc3)[C@H]2SC1` [Cephalexin, reference compound], the MIC in the assay on Proteus mirabilis (Proteus mirabilis) was 25 mg/L (≈ 72 µM); in assay [1] (setting [3]), 1.25 mg/L (≈ 3.6 µM); in the assay with Streptococcus D, 100 mg/L (≈ 288 µM); in the assay on Streptococcus pyogenes A (Streptococcus pyogenes), 0.156 mg/L (≈ 0.449 µM).
On to `CC(=O)OCC1=C(C(=O)O)N2C(=O)[C@@H](NC(=O)Cc3cccs3)[C@H]2SC1` [Cephalotin-Na, reference compound], for which the MIC stood at 12.5 mg/L (≈ 31.5 µM) in the assay with Proteus mirabilis (Proteus mirabilis), 0.13 mg/L (≈ 0.328 µM) in assay [1] (setting [3]), 78.5 mg/L (≈ 198 µM) in the assay on Streptococcus D and 0.05 mg/L (≈ 0.126 µM) in the assay with Streptococcus pyogenes A (Streptococcus pyogenes).
Consider `Cc1nnc(SCC2=C(C(=O)O)N3C(=O)[C@@H](NC(=O)Cn4cnnn4)[C@H]3SC2)s1` [Cephazolin-Na, reference compound], for which the MIC in the assay on Proteus mirabilis (Germ: Proteus mirabilis) was 25 mg/L (≈ 55 µM); in assay [1] (setting [4]) it was 0.25 mg/L (≈ 0.55 µM); with Streptococcus pyogenes A (Germ: Streptococcus pyogenes A) it was 0.03 mg/L (≈ 0.066 µM).
Turning to `N=C(N)c1ccc(CC(=O)NC2C(=O)N3C(C(=O)O)=C(CSc4nncs4)CSC23)cc1` (centres unmarked) [Example 1, 3-[(1,3,4-thiadiazole-2-yl)-thiomethyl]-7-(4-amidino-phenylacetamido)-Δ3-cephem-4-carboxylic acid], the MIC in the assay on Proteus mirabilis (Germ: Proteus mirabilis) lay within 3.1 to 12.5 mg/L (≈ 6.32 to 25.5 µM); in assay [1] (setting [4]) it was 0.0196 to 0.0391 mg/L (≈ 0.04 to 0.0797 µM); in the assay on Streptococcus D (Germ: Streptococcus D), 10 to 50 mg/L (≈ 20.4 to 102 µM); with Streptococcus pyogenes A (Germ: Streptococcus pyogenes A), 0.000391 to 0.0078 mg/L (≈ 0.000797 to 0.0159 µM); in assay [2], 0.156 to 0.391 mg/L (≈ 0.318 to 0.797 µM).
On the same counts, the results for `N=C(N)c1ccc(CC(=O)NC2C(=O)N3C(C(=O)O)=C(CSc4nncs4)CSC23)s1` (centres unmarked) [Example 3, 3-[(1,3,4-thiadiazole-2-yl)-thiomethyl]-7-(5-amidinothienyl-acetamido)-Δ3-cephem-4-ccarboxylic acid] are 3.1 to 12.5 mg/L (≈ 6.24 to 25.2 µM), 0.0625 to 0.078 mg/L (≈ 0.126 to 0.157 µM), 10 to 50 mg/L (≈ 20.1 to 101 µM), 0.008 to 0.0156 mg/L (≈ 0.0161 to 0.0314 µM) and 0.156 to 0.391 mg/L (≈ 0.314 to 0.787 µM).
Taken in the same sequence, the figures for `N=C(N)c1ccc(CC(=O)NC2C(=O)N3C(C(=O)O)=C(CSc4nccs4)CSC23)cc1` (centres unmarked) [Example 4, 3-[(thiazole-2-yl)-thiomethyl]-7-(4-amidino-phenylacetamido)-Δ3-cephem-4-carboxylic acid] were 25 mg/L (≈ 51.1 µM), 0.0196 to 0.0391 mg/L (≈ 0.04 to 0.0799 µM), 10 to 50 mg/L (≈ 20.4 to 102 µM), 0.000391 to 0.0078 mg/L (≈ 0.000799 to 0.0159 µM) and 0.156 to 0.391 mg/L (≈ 0.319 to 0.799 µM).
On the same counts, the results for `Cc1nnc(SCC2=C(C(=O)O)N3C(=O)C(NC(=O)Cc4ccc(NC(=N)N)cc4)C3SC2)s1` (centres unmarked) [Example 6, 3-[(5-methyl-1,3,4-thiadiazole-2-yl)-thiomethyl]-7-(4-guanidino-phenylacetamido)-Δ3-cephem-4-carboxylic acid] are 3.1 to 12.5 mg/L (≈ 5.97 to 24.1 µM), 0.0196 to 0.0391 mg/L (≈ 0.0377 to 0.0752 µM), 10 to 50 mg/L (≈ 19.2 to 96.2 µM), 0.008 to 0.0156 mg/L (≈ 0.0154 to 0.03 µM) and 0.156 to 0.391 mg/L (≈ 0.3 to 0.752 µM).
For `N=C(N)Nc1ccc(CC(=O)NC2C(=O)N3C(C(=O)O)=C(CSc4nncs4)CSC23)cc1` (centres unmarked) [Example 9, 3-[(1,3,4-thiadiazole-2-yl)-thiomethyl]-7-(4-guanidino-phenylacetamido)-Δ3-cephem-4-carboxylic acid], the MIC in the assay on Proteus mirabilis (Germ: Proteus mirabilis) was 25 mg/L (≈ 49.4 µM); in assay [1] (setting [4]), 0.0196 to 0.0391 mg/L (≈ 0.0388 to 0.0773 µM); in the assay on Streptococcus D (Germ: Streptococcus D), 10 to 50 mg/L (≈ 19.8 to 98.9 µM); in the assay on Streptococcus pyogenes A (Germ: Streptococcus pyogenes A), 0.000391 to 0.0078 mg/L (≈ 0.000773 to 0.0154 µM); in assay [2], 0.5 to 1.25 mg/L (≈ 0.989 to 2.47 µM).
For the molecule `CCCc1nnc(SCC2=C(C(=O)O)N3C(=O)C(NC(=O)Cc4ccc(C5=NCCN5)cc4)C3SC2)s1` (centres unmarked) [Example 53], the MIC in the assay with Proteus mirabilis (Germ: Proteus mirabilis) was 25 mg/L (≈ 44.7 µM); in assay [1] (setting [4]), 0.0625 to 0.078 mg/L (≈ 0.112 to 0.14 µM); with Streptococcus D (Germ: Streptococcus D) it was 0.196 to 6.25 mg/L (≈ 0.351 to 11.2 µM); in the assay with Streptococcus pyogenes A (Germ: Streptococcus pyogenes A), 0.000391 to 0.0078 mg/L (≈ 0.0007 to 0.014 µM); in assay [2], 0.5 to 1.25 mg/L (≈ 0.895 to 2.24 µM).
On the same counts, the results for `CCCCc1nnc(SCC2=C(C(=O)O)N3C(=O)C(NC(=O)Cc4ccc(C(=N)N)cc4)C3SC2)s1` (centres unmarked) [Example 55, 3-[(5-n-butyl-1,3,4-thiadiazole-2-yl)-thiomethyl]-7-(4-amidinophenylacetamido)-Δ 3-cephem-4-carboxylic acid] are 25 mg/L (≈ 45.7 µM), 0.0625 to 0.078 mg/L (≈ 0.114 to 0.143 µM), 10 to 50 mg/L (≈ 18.3 to 91.5 µM), 0.000391 to 0.0078 mg/L (≈ 0.000715 to 0.0143 µM) and 0.156 to 0.391 mg/L (≈ 0.285 to 0.715 µM).
Turning to `CCCc1nnc(SCC2=C(C(=O)O)N3C(=O)C(NC(=O)Cc4ccc(C(=N)N)cc4)C3SC2)s1` (centres unmarked) [Example 58, 3-[(5-n-propyl-1,3,4-thiadiazole-2-yl)-thiomethyl]-7-(4-amidinophenylacetamido)-Δ 3-cephem-4-carboxylic acid], the MIC lay within 3.1 to 12.5 mg/L (≈ 5.82 to 23.5 µM) in the assay on Proteus mirabilis (Germ: Proteus mirabilis); 0.0196 to 0.0391 mg/L (≈ 0.0368 to 0.0734 µM) in assay [1] (setting [4]); 10 to 50 mg/L (≈ 18.8 to 93.9 µM) in the assay with Streptococcus D (Germ: Streptococcus D); 0.000391 to 0.0078 mg/L (≈ 0.000734 to 0.0146 µM) with Streptococcus pyogenes A (Germ: Streptococcus pyogenes A); 0.156 to 0.391 mg/L (≈ 0.293 to 0.734 µM) in assay [2].
On the same counts, the results for `Cc1nnc(SCC2=C(C(=O)O)N3C(=O)C(NC(=O)Cc4ccc(C(=N)N)cc4)C3SC2)o1` (centres unmarked) [Example 60, 3-[(5-methyl-1,3,4-oxadiazole-2-yl)-thiomethyl]-7-(4-amidinophenylacetamido)-Δ 3-cephem-4-carboxylic acid] are 3.1 to 12.5 mg/L (≈ 6.35 to 25.6 µM), 0.0625 to 0.078 mg/L (≈ 0.128 to 0.16 µM), 10 to 50 mg/L (≈ 20.5 to 102 µM), 0.000391 to 0.0078 mg/L (≈ 0.0008 to 0.016 µM) and 0.5 to 1.25 mg/L (≈ 1.02 to 2.56 µM).
Turning to `O=C(Cc1ccc(C2=NCCN2)cc1)NC1C(=O)N2C(C(=O)O)=C(CSc3nncs3)CSC12` (centres unmarked) [Example 70, 3-[(1,3,4-thiadiazole-2-yl)-thiomethyl]-7-[4-(imidazoline-2-yl)phenylacetamido]-Δ 3-cephem-4-carboxylic acid], the MIC in the assay on Proteus mirabilis (Germ: Proteus mirabilis) is 3.1 to 12.5 mg/L (≈ 6 to 24.2 µM); in assay [1] (setting [4]) it was 0.0625 to 0.078 mg/L (≈ 0.121 to 0.151 µM); in the assay with Streptococcus D (Germ: Streptococcus D), 0.196 to 6.25 mg/L (≈ 0.379 to 12.1 µM); in the assay on Streptococcus pyogenes A (Germ: Streptococcus pyogenes A) it was 0.000391 to 0.0078 mg/L (≈ 0.000757 to 0.0151 µM); in assay [2], 0.156 to 0.391 mg/L (≈ 0.302 to 0.757 µM).
For the molecule `O=C(Cc1ccc(C2=NCCN2)cc1)NC1C(=O)N2C(C(=O)O)=C(CSc3nc4ccccc4s3)CSC12` (centres unmarked) [Example 118, 3-[(benzothiazole-2-yl)-thiomethyl]-7-[4-(imidazoline-2-yl)-phenylacetamido]-Δ3-cephem-4-carboxylic acid], the MIC is 25 mg/L (≈ 44.2 µM) with Proteus mirabilis (Germ: Proteus mirabilis); 0.0625 to 0.078 mg/L (≈ 0.11 to 0.138 µM) in assay [1] (setting [4]); 0.196 to 6.25 mg/L (≈ 0.346 to 11 µM) in the assay with Streptococcus D (Germ: Streptococcus D); 0.000391 to 0.0078 mg/L (≈ 0.000691 to 0.0138 µM) in the assay on Streptococcus pyogenes A (Germ: Streptococcus pyogenes A); 0.156 to 0.391 mg/L (≈ 0.276 to 0.691 µM) in assay [2].
Consider `CCc1nnc(SCC2=C(C(=O)O)N3C(=O)C(NC(=O)Cc4ccc(C5=NCCN5)cc4)C3SC2)s1` (centres unmarked) [Example 120], for which the MIC with Proteus mirabilis (Germ: Proteus mirabilis) lay within 3.1 to 12.5 mg/L (≈ 5.69 to 22.9 µM); in assay [1] (setting [4]), 0.0196 to 0.0391 mg/L (≈ 0.036 to 0.0718 µM); in the assay on Streptococcus D (Germ: Streptococcus D) it was 10 to 50 mg/L (≈ 18.4 to 91.8 µM); in the assay with Streptococcus pyogenes A (Germ: Streptococcus pyogenes A), 0.000391 to 0.0078 mg/L (≈ 0.000718 to 0.0143 µM); in assay [2], 0.156 to 0.391 mg/L (≈ 0.286 to 0.718 µM).
On to `CCc1nnc(SCC2=C(C(=O)O)N3C(=O)C(NC(=O)Cc4ccc(C5=NCCCN5)cc4)C3SC2)s1` (centres unmarked) [Example 121, 3-[(5-ethyl-1,3,4-thiadiazole-2-yl)-thiomethyl]-7-[4-(1,4,5,6-tetrahydropyrimide-2-yl)-phenylacetamido]-Δ3-cephem-4-carboxylic acid], for which the MIC in the assay on Proteus mirabilis (Germ: Proteus mirabilis) is 25 mg/L (≈ 44.7 µM); in assay [1] (setting [4]), 0.0196 to 0.0391 mg/L (≈ 0.0351 to 0.07 µM); with Streptococcus D (Germ: Streptococcus D) it was 10 to 50 mg/L (≈ 17.9 to 89.5 µM); with Streptococcus pyogenes A (Germ: Streptococcus pyogenes A), 0.000391 to 0.0078 mg/L (≈ 0.0007 to 0.014 µM); in assay [2], 0.156 to 0.391 mg/L (≈ 0.279 to 0.7 µM).
Regarding `O=C(Cc1ccc(C2=NCCN2)cc1)NC1C(=O)N2C(C(=O)O)=C(CSc3nnco3)CSC12` (centres unmarked) [Example 124, 3-[(1,3,4-oxadiazole-2-yl)-thiomethyl]-7-[4-(imidazoline-2-yl)-phenylacetamido]-Δ 3-cephem-4-carboxylic acid], the MIC in the assay on Proteus mirabilis (Germ: Proteus mirabilis) is 3.1 to 12.5 mg/L (≈ 6.19 to 25 µM); with Streptococcus D (Germ: Streptococcus D), 10 to 50 mg/L (≈ 20 to 99.9 µM); with Streptococcus pyogenes A (Germ: Streptococcus pyogenes A), 0.008 to 0.0156 mg/L (≈ 0.016 to 0.0312 µM); in assay [2], 0.5 to 1.25 mg/L (≈ 0.999 to 2.5 µM).
